Data published in US20260242416A1, “ANTIMICROBIAL PEPTIDES” (priority 2023, published 2026).
Where a SMILES comes first, the peptide text is derived from it.

Key:
[1] = test system: Salmonella enterica serovar Enteritidis (human clinical isolate); type: cell-based; details: serovar Enteritidis (human clinical isolate)
Procedure: (§1) Bacteria were grown overnight at 37° C. in Mueller-Hinton Broth (MHB; Sigma-Aldrich, St. Louis. MO, USA) in a shaking incubator and aliquoted into cryovials with a 50% glycerol solution in a 1:1 ratio. No additives were added to the MHB during the growth of bacterial isolates. Glycerol stocks were stored at −80° C.
(§2) The antimicrobial activity of the putative AMPs was determined by a broth microdilution assay as described by the Clinical and Laboratory Standards Institute, with the published adaptations for testing of cationic peptides. Escherichia coli 25922 and Staphylococcus aureus 29213 isolates were purchased from the American Type Culture Collection (ATCC; Manassas, VA, USA). A human clinical isolate of Salmonella enterica serovar Enteritidis was provided by the BC Centre for Disease Control. Bacteria from stocks stored at −80° C. were streaked onto nonselective Columbia blood agar with 5% sheep blood (Oxoid) and incubated overnight at 37° C. Next, 2-4 colonies were streaked onto a new agar plate to ensure uniform health of colonies used in the broth microdilution assay. Isolated colonies were suspended in MHB and the optical density was measured with a spectrophotometer to create an initial inoculum concentration of approximately 1×10^8 cfu/mL. The inoculum was diluted 1:250 to a final concentration of 2-8×10^5 cfu/mL, which was confirmed by performing a Total Viability Count (TVC). The TVC consisted of plating a 1:1000 dilution of the final inoculum on nonselective media and was also used to confirm the health and purity of the inoculum in each trial.
(§3) Lyophilized 80 μg peptide aliquots synthesized by GenScript (Piscataway, NJ, USA) were resuspended to 1.28 mg/mL with UltraPure water (Thermo Fisher Scientific, Waltham, MA, USA) and serially diluted in polypropylene 96-well microtiter plates (Greiner Bio-One #650261, Kremsmunster, Austria) from 128 down to 0.5 μg/mL. Two columns per plate were reserved for growth and sterility controls. Inoculum was added to the wells containing the peptide and the growth control. Plates were incubated for 20-24 h at 37° C. The minimum inhibitory concentration (MIC) was determined as the lowest peptide concentration where there was no visible bacterial growth.

[2] = test system: E. coli ATCC 25922; type: cell-based, Escherichia coli; details: ATCC 25922
Procedure: as §1, §2, §3

[3] = test system: S. aureus ATCC 29213; type: cell-based, Staphylococcus aureus; details: ATCC 29213
Procedure: as §1, §2, §3

MIC (ug/mL) S. Enteritidis [1]	MIC (ug/mL) E. coli [2]	MIC (ug/mL) S. aureus [3]	Structure (SMILES)
>128/>128/>128 ug/mL	>128/>128/>128 ug/mL	>128/>128/>128 ug/mL	CC[C@H](C)[C@H](NC(=O)[C@H](Cc1c[nH]cn1)NC(=O)[C@H](Cc1c[nH]cn1)NC(=O)[C@H](Cc1c[nH]cn1)NC(=O)[C@@H](N)CCCCN)C(=O)N[C@@H](CCCCN)C(=O)N[C@@H](CC(C)C)C(=O)N[C@@H](CCCNC(=N)N)C(=O)N[C@@H](Cc1c[nH]cn1)C(=O)NCC(=O)N[C@@H](CCCNC(=N)N)C(=O)N[C@@H](Cc1c[nH]cn1)C(=O)N[C@@H](CCCNC(=N)N)C(=O)N[C@@H](CCCNC(=N)N)C(=O)N[C@@H](CO)C(=O)N[C@H](C(=O)N[C@@H](CC(C)C)C(=O)N[C@@H](CCCNC(=N)N)C(=O)N[C@H](C(=O)N[C@@H](CC(C)C)C(=O)N[C@H](C(=O)O)C(C)C)[C@@H](C)O)C(C)C [CaCa3] (H-KHHHIKLRHGRHRRSVLRTLV-OH; N-terminus and C-terminus assumed)
>128/>128/>128 ug/mL	>128/>128/>128 ug/mL	>128/>128/>128 ug/mL	CC(C)C[C@H](NC(=O)[C@H](C)NC(=O)[C@@H](NC(=O)[C@H](CC(=O)O)NC(=O)[C@H](CCCNC(=N)N)NC(=O)[C@H](CCCCN)NC(=O)[C@H](Cc1ccccc1)NC(=O)[C@@H](NC(=O)[C@H](CCC(=O)O)NC(=O)[C@H](CCCCN)NC(=O)[C@H](Cc1c[nH]cn1)NC(=O)[C@H](C)NC(=O)CN)C(C)C)[C@@H](C)O)C(=O)N[C@H](C(=O)N[C@@H](CCCCN)C(=O)N[C@@H](CCC(=O)O)C(=O)N[C@@H](C)C(=O)N[C@@H](C)C(=O)N[C@@H](CCCCN)C(=O)N[C@@H](CCCCN)C(=O)N[C@@H](C)C(=O)N[C@@H](CCCCN)C(=O)N[C@@H](CCCCN)C(=O)O)[C@@H](C)O [ApMe2] (H-GAHKEVFKRDTALTKEAAKKAKK-OH; N-terminus and C-terminus assumed)
>128/>128/>128 ug/mL	>128/>128/>128 ug/mL	>128/>128/>128 ug/mL	CC(C)C[C@H](NC(=O)[C@H](C)NC(=O)[C@@H](N)Cc1c[nH]c2ccccc12)C(=O)N[C@@H](CCCNC(=N)N)C(=O)N[C@@H](Cc1c[nH]c2ccccc12)C(=O)N[C@@H](CCCCN)C(=O)N[C@H](C(=O)N[C@@H](CCCNC(=N)N)C(=O)O)[C@@H](C)O [PaVi1, WALRWKTR] (H-WALRWKTR-OH; N-terminus and C-terminus assumed)
>128/>128/>128 ug/mL	>128/>128/>128 ug/mL	>128/>128/>128 ug/mL	CC[C@H](C)[C@H](NC(=O)[C@H](CS)NC(=O)[C@H](CCCNC(=N)N)NC(=O)[C@H](CS)NC(=O)[C@H](CO)NC(=O)[C@H](CCCNC(=N)N)NC(=O)[C@H](CO)NC(=O)[C@H](CO)NC(=O)[C@H](CO)NC(=O)CN)C(=O)N[C@@H](CCCNC(=N)N)C(=O)N[C@@H](CC(C)C)C(=O)N[C@@H](CO)C(=O)N[C@@H](CCCNC(=N)N)C(=O)N[C@@H](CC(C)C)C(=O)N[C@@H](CO)C(=O)N[C@@H](CO)C(=O)N[C@@H](CCCCN)C(=O)N[C@@H](CCCNC(=N)N)C(=O)N[C@H](C(=O)O)[C@@H](C)O [NaVi4] (H-GSSSRSCRCIRLSRLSSKRT-OH; N-terminus and C-terminus assumed)
>128/>128/>128 ug/mL	>128/>128/>128 ug/mL	>128/>128/>128 ug/mL	CC(C)C[C@H](NC(=O)CNC(=O)[C@H](CO)NC(=O)[C@H](CO)NC(=O)[C@H](CO)NC(=O)[C@H](CO)NC(=O)[C@H](CC(C)C)NC(=O)[C@@H]1CCCN1C(=O)[C@H](CO)NC(=O)[C@H](CC(C)C)NC(=O)[C@H](CO)NC(=O)[C@@H](N)CO)C(=O)NCC(=O)N[C@@H](CCCCN)C(=O)N[C@@H](CCCCN)C(=O)N[C@@H](CCCCN)C(=O)N[C@@H](CCCCN)C(=O)N[C@@H](CCCNC(=N)N)C(=O)N[C@@H](CCCCN)C(=O)N[C@@H](CO)C(=O)N[C@@H](CCCCN)C(=O)N[C@@H](CCCNC(=N)N)C(=O)N[C@@H](C)C(=O)N[C@@H](CO)C(=O)N[C@@H](CCCNC(=N)N)C(=O)O [NaVi2] (H-SSLSPLSSSSGLGKKKKRKSKRASR-OH; N-terminus and C-terminus assumed)
>128/>128/>128 ug/mL	>128/>128/>128 ug/mL	>128/>128/>128 ug/mL	CC[C@H](C)[C@H](NC(=O)[C@@H](N)Cc1ccccc1)C(=O)N[C@@H](CC(C)C)C(=O)N[C@@H](Cc1c[nH]cn1)C(=O)N[C@@H](C)C(=O)N[C@@H](CCCCN)C(=O)N[C@@H](CCCCN)C(=O)N[C@H](C(=O)N[C@@H](CCCNC(=N)N)C(=O)N[C@@H](CO)C(=O)N[C@@H](C)C(=O)N[C@@H](CCCCN)C(=O)O)[C@@H](C)O [VeSi1, FILHAKKTRSAK] (H-FILHAKKTRSAK-OH; N-terminus and C-terminus assumed)
>128/>128/>128 ug/mL	>128/>128/>128 ug/mL	>128/>128/>128 ug/mL	CC(C)C[C@H](NC(=O)[C@H](CO)NC(=O)[C@H](C)NC(=O)[C@@H](NC(=O)[C@@H](N)CO)C(C)C)C(=O)N[C@@H](C)C(=O)N[C@@H](CCCCN)C(=O)N[C@@H](CC(N)=O)C(=O)N[C@@H](CO)C(=O)N[C@@H](C)C(=O)N[C@@H](Cc1c[nH]c2ccccc12)C(=O)N1CCC[C@H]1C(=O)N[C@H](C(=O)N[C@@H](CO)C(=O)N[C@@H](CC(C)C)C(=O)N[C@@H](CCCCN)C(=O)N[C@@H](CCCNC(=N)N)C(=O)O)C(C)C [BoAr4, SVASLAKNSAWPVSLKR] (H-SVASLAKNSAWPVSLKR-OH; N-terminus and C-terminus assumed)
>128/>128/>128 ug/mL	>128/>128/>128 ug/mL	>128/>128/>128 ug/mL	CC(C)[C@H](NC(=O)[C@H](CCCCN)NC(=O)CNC(=O)[C@H](C)NC(=O)CNC(=O)[C@H](C)NC(=O)[C@H](C)N)C(=O)N[C@H](C(=O)N[C@@H](CCCCN)C(=O)N[C@@H](CO)C(=O)N[C@@H](C)C(=O)N[C@@H](CCC(N)=O)C(=O)N[C@@H](CCCCN)C(=O)N[C@@H](C)C(=O)N[C@@H](CCC(N)=O)C(=O)N[C@@H](CCCCN)C(=O)N[C@@H](C)C(=O)N[C@@H](CCCCN)C(=O)O)[C@@H](C)O [BoAr1, AAGAGKVTKSAQKAQKAK] (H-AAGAGKVTKSAQKAQKAK-OH; N-terminus and C-terminus assumed)
>128/>128/>128 ug/mL	>128/>128/>128 ug/mL	>128/>128/>128 ug/mL	CC[C@H](C)[C@H](N)C(=O)N[C@H](C(=O)N[C@@H](CCC(=O)O)C(=O)N1CCC[C@H]1C(=O)N[C@H](C(=O)NCC(=O)N[C@H](C(=O)N[C@@H](CCCCN)C(=O)N[C@@H](C)C(=O)N1CCC[C@H]1C(=O)N[C@H](C(=O)N[C@@H](Cc1ccccc1)C(=O)N[C@H](C(=O)N[C@@H](CO)C(=O)N[C@@H](CCC(=O)O)C(=O)N[C@@H](CC(C)C)C(=O)N[C@@H](CCCNC(=N)N)C(=O)NCC(=O)NCC(=O)N[C@@H](Cc1c[nH]c2ccccc12)C(=O)N[C@@H](CC(C)C)C(=O)N[C@@H](CCCCN)C(=O)N[C@@H](CCCCN)C(=O)N[C@@H](CCCNC(=N)N)C(=O)O)[C@@H](C)O)[C@@H](C)O)[C@@H](C)O)C(C)C)[C@@H](C)O [PaVa3] (H-ITEPVGTKAPTFTSELRGGWLKKR-OH; N-terminus and C-terminus assumed)
>128/>128/>128 ug/mL	>128/>128/>128 ug/mL	>128/>128/>128 ug/mL	CC[C@H](C)[C@H](NC(=O)[C@H](Cc1c[nH]cn1)NC(=O)[C@H](Cc1c[nH]cn1)NC(=O)[C@H](Cc1ccc(O)cc1)NC(=O)[C@@H](N)CCCCN)C(=O)N[C@@H](CCCCN)C(=O)N[C@@H](CC(C)C)C(=O)N[C@@H](CCCNC(=N)N)C(=O)N[C@@H](Cc1c[nH]cn1)C(=O)NCC(=O)N[C@@H](CCCNC(=N)N)C(=O)N[C@@H](Cc1c[nH]cn1)C(=O)N[C@@H](CCCNC(=N)N)C(=O)N[C@@H](CCCNC(=N)N)C(=O)N[C@H](C(=O)N[C@H](C(=O)N[C@@H](Cc1c[nH]cn1)C(=O)O)[C@@H](C)CC)[C@@H](C)O [PaVa2, KYHHIKLRHGRHRRTIH] (H-KYHHIKLRHGRHRRTIH-OH; N-terminus and C-terminus assumed)
